Assays:
[1] = system: waterhemp (Amaranthus tuberculatus=Amaranthus rudis=Amaranthus tamariscinus) having the substitution of an amino acid residue of G210Δ in PPX2; assay: Herbicidal effect, foliar spray pot test in greenhouse (Example 9); type: in vivo; conditions: spray volume 216 L/ha, 28 days after spraying, rating 0 to 100
[2] = system: waterhemp (Amaranthus tuberculatus=Amaranthus rudis=Amaranthus tamariscinus) having the substitution of an amino acid residue of G210Δ in PPX2; assay: Herbicidal effect, foliar spray pot test in greenhouse (Example 10); type: in vivo; conditions: 216 L/ha, 28 days after spraying, rating 0 to 100
[3] = glufosinate-ammonium 350 g/ha alone

With `CP(=O)(O)CCC(N)C(=O)O` (centres unmarked) [glufosinate-ammonium] the Herbicidal effect [1, 3] was 37 and the Herbicidal effect [2, 3] was 37.
`CCOC(=O)COc1ncccc1Oc1cc(-n2c(=O)cc(C(F)(F)F)n(C)c2=O)c(F)cc1Cl` [compound X, epyrifenacil] showed a Herbicidal effect ([1]; compound X 0.5 g/ha alone) of 17 and a Herbicidal effect ([1]; compound X 1 g/ha alone) of 18.
`C#CCN1C(=O)C(F)(F)Oc2cc(F)c(-n3c(=O)n(C)c(=S)n(C)c3=O)cc21` [trifludimoxazin] was tested, and the Herbicidal effect ([2]; trifludimoxazin 0.5 g/ha alone) was 10.

Reference: patent US12543737B2, “Herbicidal composition and method for controlling weeds” (SUMITOMO CHEMICAL COMPANY, LIMITED, priority 2020, dated 2026)
